Laboratory results reported in patent publication US20260294874A1, “COMPOSITIONS COMPRISING MODULATORS OF RIBONUCLEOPROTEIN GRANULE FORMATION AND DISSOLUTION AND METHODS OF USE THEREOF” (University of Virginia Patent Foundation, priority 2023, published 2026).
Entries after “also recorded” stand apart in the source; their conditions may differ.

Test system: P-bodies (EDC4 foci) in HEK293T cells
Experiment: Immunofluorescence phenotypic screen for P-bodies (α-EDC4) in glucose-deprived HEK293T cells
Format: cell-based
Conditions: glucose-deprived HEK293T cells, 25 μM, 2 h
Method: SuTEx compound treatments. Prior to treatments, cells were washed twice with warm phosphate-buffered saline (PBS) and exchanged with serum-free DMEM (supplemented with 1% L-glutamine) for at least 30 minutes at 37° C. with 5% CO2. Compounds were then added as 1000×DMSO stocks (10 μL for 10 cm dishes and 3 μL for 6-well dishes), plates were mixed gently, and cells were incubated for two hours. All compounds were thoroughly vortexed and sonicated for five minutes prior to addition to ensure complete solvation. For microscopy experiments, cultures were seeded at 150,000 cells in 3 mL of DMEM in 6-well THERMO SCIENTIFIC™ BIOLITE™ brand microwell plates (Catalog No. 12556004; Thermo Fisher Scientific Inc., Waltham, Massachusetts. United States of America). For collection, media was aspirated, and cells were washed once with cold PBS before scraping from plates. Cells were centrifuged at 500×g at 4° C. for 5 minutes and supernatant was removed. Cell pellets were resuspended in cold PBS (1 mL) and centrifuged at 1,400×g at 4° C. for 3 minutes. Supernatant was again removed, and pellets were then snap-frozen in liquid nitrogen and stored at −80° C. until needed.
Immunofluorescence. Immunofluorescence (IF) of HEK293T cells was performed as previously described in Ciancone et al., 2022. HeLa cells were seeded at 9.0×10^4 in a 24-well plate with 12-mm glass coverslips. The next day, the cells were treated with 25 μM SuTEx probe for 2 hours in DMEM medium without FBS. The cells were then treated with 75 μM NaAsO2 for 30 minutes and fixed with 3% paraformaldehyde in PBS for 15 minutes at room temperature (RT) and washed with PBS twice. The fixed cells were permeabilized with PBST (0.1% Triton X-100) for 15 minutes at room temperature and blocked with 5% goat serum in PBST for 30 minutes at RT. The cells were incubated with anti-G3BP1 antibody H-10 (Catalog No. sc-365338 at 1:200 dilution; Santa Cruz Biotechnology, Inc., Dallas, Texas, United States of America) for 2 hours at RT and washed with PBST (0.1% Tween-20) for 5 minutes three times. Next, cells were incubated with goat anti-mouse Alexa 594 antibody (Catalog No. 115-585-003 at 1:800 dilution; Jackson ImmunoResearch, West Grove, Pennsylvania, United States of America) for 30 minutes at RT. The cells were washed twice with PBST, stained with Hoechst 33342 (Catalog No. H3570 at […]; Thermo Fischer Scientific) in PBST for 5 minutes, and washed with PBS twice for 5 minutes. The coverslips were mounted in PROLONG™ Gold AntiFade Mountant (Catalog No. P36930, Thermo Fisher Scientific) and imaged using NIS Elements AR software and a Nikon Eclipse Ti microscope equipped with a ×100 objective and CMOS camera. […] A CellProfiler pipeline was developed to quantify the number of stress granules under each condition. Briefly, cells were recognized as blue^+ (nuclei) red^+ (G3BP1) objects, and the red^+ granules that meet the shape and size threshold were identified and counted. Cells on the border of linages were excluded from the analysis for more accurate quantification.
Data Analysis—Microscopy. All slides were blinded for imaging. Leica SP5X images were analyzed using Fiji (ImageJ). Custom macros were written for analysis and can be obtained upon request. To elaborate, images were split into channels based on the different laser wavelengths measured. Image stacks were then combined using ‘Z-Project’ with an average intensity parameter and a threshold was applied to exclude noise based on the negative control (no EDC4 antibody). The ‘Analyze Particles’ function was used with relevant size and circularity constraints (0.85-1.00) to count the number of foci, with total PBs having a diameter of >150 nm, and large PBs>450 nm. The number of foci was normalized to the number of cells (defined by a DAPI stain count) in each linage, and the number of foci per cell was averaged across technical replicates. Every sample had at least two technical replicates and two independent biological replicates. […]

Compound | effect on PBs (in words)
CC(C)c1cc(C(C)C)c(S(=O)(=O)n2cc(-c3ccc(C(F)(F)F)cc3)nn2)c(C(C)C)c1 [AHL-003] | block both types of RNP granules; also recorded: inhibited
COc1ccc(S(=O)(=O)n2cc(CS(C)(=O)=O)nn2)cc1 [AHL-030, 1-((4-Methoxyphenyl)sulfonyl)-4-((methylsulfonyl)methyl)-1H-1,2,3-triazole] | PB-inhibitory; also recorded: modestly inhibiting PBs; also recorded: decreased PBs
